In patent US10351553B2, “Potassium channel modulators” (Cadent Therapeutics, Inc., priority 2017, dated 2019):
pIC50: −log10 of the molar value. ≈ marks a conversion by molar mass, not a printed value. Like-named read-outs stand apart in the source and are kept apart here.

Assays:
[1] = Brain free fraction by equilibrium dialysis in rat brain tissue homogenate; format: in vitro ADME; conditions: 10% rat brain tissue homogenate, Tables 2 and 3
Experimental: (§1) The extent to which compounds modulate SK2 channels in vivo is expressed as % SK2 SC100, which is the ratio of the concentration of the drug free in the brain to the measured potency of the compound on the SK2 channel. It is calculated as follows: CFB=CMB×BFF, where CMB is the concentration of compound measured by liquid chromatography mass spectrometry from brains harvested immediately following tremor recording (Table 1, “Measured Brain Concentration”). CFB is the amount of free compound not complexed with protein and therefore free to interact with the SK2 channel (Table 1, “Calculated Free Brain Concentration”). BFF is average free fraction of compound as measured by equilibrium dialysis in separate experiments (1 uM test concentration incubated in 10% rat brain tissue homogenate for 5 hours at 37° C.) (Table 1, “Brain Free Fraction”). Free drug in brain available to interact with SK2 channels (CFB) is arrived at by multiplying the measured total brain level (CMB) by the average free fraction (BFF).

[2] = Aqueous (kinetic) solubility, shake-flask, phosphate buffer pH 7.4; format: physicochemical; conditions: 23 °C, kinetic from dmso stock, phosphate buffer pH 7.4, 16 hours at room temperature
Experimental: Aqueous solubility (kinetic solubility) tests of the compounds were performed in phosphate buffer saline (pH 7.4) measured by shake-flask method. In this assay, DMSO stock solution of test compound is added to buffer followed by equilibration (shaking), filtration and determination of soluble amount by HPLC-UV Conditions used in the assay are summarized below.

[3] = Metabolic stability in liver microsomes, mouse; format: in vitro ADME; conditions: % remaining at 1 hour; 1 μM
Experimental: (§2) Metabolic stability profiling of the compounds was performed in liver microsomes. In this assay, test compound is incubated with liver microsomes in the presence of NADPH for 2 time points at 37° C. At the end of incubation, reaction is quenched with acetonitrile containing internal standard and the parent compound remaining is determined by LC-MS/MS. Conditions used in the assay are summarized below. […], 37° C. • Test concentration: 1 μM in 0.02% DMSO at pH 7.4 (n=2) • NADPH concentration in assay: 1 mM • Liver microsome protein concentration in assay: 0.5 mg/ml • Analysis: LC-MS/MS • Data reported: % Parent Compound Remaining (% PCR) • Reference compounds for high and low clearance are included • Species tested: mouse, rat, dog, monkey, and human

[4] = Metabolic stability in liver microsomes, rat; format: in vitro ADME; conditions: % remaining at 1 hour; 1 μM
Experimental: as §2

[5] = Metabolic stability in liver microsomes, dog; format: in vitro ADME; conditions: % remaining at 1 hour; 1 μM
Experimental: as §2

[6] = Metabolic stability in liver microsomes, monkey; format: in vitro ADME; conditions: % remaining at 1 hour; 1 μM
Experimental: as §2

[7] = biological target: T1, CYP2D6 (Homo sapiens, UniProt P10635); test: CYP inhibition in human liver microsome, CYP2D6 (Bufuralol); format: in vitro ADME
T1 construct: Matrix: Human Liver Microsome (Invitrogen, life technologies); tissue Invitrogen, life technologies; host or cells: human liver microsomes
T1 sequence (P10635 whole entry): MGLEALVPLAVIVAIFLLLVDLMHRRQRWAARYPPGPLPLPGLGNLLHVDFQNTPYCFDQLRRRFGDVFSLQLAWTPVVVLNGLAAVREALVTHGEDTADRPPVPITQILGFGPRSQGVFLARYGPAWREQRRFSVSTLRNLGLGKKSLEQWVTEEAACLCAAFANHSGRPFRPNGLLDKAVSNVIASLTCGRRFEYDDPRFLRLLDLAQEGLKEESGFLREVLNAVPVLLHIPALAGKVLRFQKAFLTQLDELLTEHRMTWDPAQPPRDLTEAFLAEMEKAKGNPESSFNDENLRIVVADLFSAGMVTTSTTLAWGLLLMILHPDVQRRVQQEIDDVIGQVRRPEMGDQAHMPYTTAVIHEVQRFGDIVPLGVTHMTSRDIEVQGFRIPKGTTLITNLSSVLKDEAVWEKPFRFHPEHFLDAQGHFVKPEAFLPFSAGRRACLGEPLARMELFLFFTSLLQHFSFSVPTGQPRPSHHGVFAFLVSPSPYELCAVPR
Experimental: Compounds described herein were tested for CYP inhibition across 5 isoforms (3A4, 2D6, 2C9, 2C19 & 1A2). In this assay, CYP isoform specific substrates are incubated with human liver microsome (HLM) in the presence of test compounds, and metabolite formation is determined. Percentage inhibition of metabolite formation at different concentrations of test compound is calculated and IC50 is determined. Conditions used in the assay are summarized below. Results are shown in Table 2. • Test drug (Inhibitor) Concentration: 8 different concentrations (100 μM to 0.005 μM) • Matrix: Human Liver Microsome (Invitrogen, life technologies) • Specific probe substrates will be used for the isoforms as given below: • CYP3A4: Midazolam • CYP2D6: Bufuralol • CYP2C9: Diclofenac • CYP2C19: Mephynitoin • CYP1A2: Phenacetin • Cofactors: NADPH (1 mM final in assay) • Sample Analysis: LC-MS/MS (metabolites) • Specific reference inhibitors included in all assays (Ketoconazole/Quinidine/Sulphaphenazole/Ticlopidine/Furafylline) • Buffer: Potassium Phosphate Buffer (100 mM) pH 7.4 • DMSO level in assay: 0.1% • Data analysis: % Inhibition over control

[8] = system: harmaline induced tremor; test: Harmaline induced tremor, tremor events by forepaw transmitter band; format: in vivo, rat
Experimental: Immediately following harmaline injection, animals were placed in the tremor quantification apparatus and tremor events were quantified for 60 minutes. A tremor event signal was generated when a small metal transmitter band fitted to the right forepaw of the animal moved within the electromagnetic field generated by a loop antenna within the testing apparatus. Outputs from the amplifier were digitized at a sampling rate of 1,000 Hz and the signal was processed and analyzed using LabView software (National Instruments). To minimize signal from ambulatory and grooming behavior, the signal was filtered with a 128-ms unweighted moving average filter, and events with amplitudes>0.5 V and lasting>300 ms in duration were counted as a tremor event. Data were analyzed in one-minute bins over the course of the test and presented as the sum of tremor events over the entire 60 minute test.

[9] = system: harmaline-induced tremor; test: Harmaline-induced whole body tremor, force-plate accelerometer (Tremor Monitor); format: in vivo
Experimental: Whole body tremor was measured by a San Diego Instruments Tremor Monitor (San Diego, Calif., USA). […] Tremor was measured for 30 minutes following harmaline administration, and data were analyzed by fast Fourier transform and reported as a frequency power spectrum. Harmaline induced a significant increase in the power spectrum in a band of frequencies between 10 and 14 Hz. […] Data were further analyzed by calculating the percent Motion Power (% MP), defined as the power in the 9-13 Hz band divided by the total power across the spectrum (0-30 Hz) multiplied by 100.

[10] = Brain concentration by LC-MS from brains harvested after tremor recording; format: in vivo; conditions: Sprague Dawley, rat, oral, 30 mg/Kg
Experimental: as §1
The amount of free compound is then expressed in terms of its potency against the SK2 channel as follows: % SK2 SC100=CFB/SK2 SC100×100, where SK2 SC100 (Table 1, “SK2 SC100”) is the measured value of potency of the compound on SK2 channels and % SK2 SC100 (Table 1, “% SK2 SC100”) is the free brain concentration (CFB) normalized to SK2 SC100.

[11] = system: Purkinje neurons; test: Purkinje cell firing irregularity in ex vivo cerebellar slices from SCA2 58Q transgenic mice; format: cell-based, mouse; conditions: bath application of 1 or 3 μM; slices from eleven-month old SCA2 58Q mice; P<0.05; FIG. 3
Excerpt: The difference in ISI CV between wild-type (N=8) and SCA2 58Q (N=11) mice is illustrated in FIG. 3 (P<0.005).

Row | Compound | fraction unbound at 5 h, 1 uM [1] | solubility kinetic at 16 h [2] | Liver microsome stability, Mouse [3] | Liver microsome stability, Rat [4] | Liver microsome stability, Dog [5] | Liver microsome stability, Monkey [6] | pIC50 [7] | Effect on harmaline induced tremor (sum of tremor events over 60 minutes) ([8]; 30 mg/Kg oral, 30 minutes prior to harmaline, male Sprague Dawley rats, FIG. 1) | Minimally Efficacious Dose ([8]; harmaline induced tremor, oral administration) | Effect on percent Motion Power (% MP) ([9]; 3 mg/kg P<0.01, 10 and 30 mg/kg P<0.05, orally, FIG. 2) | Effect on harmaline-induced power spectrum, 10 to 14 Hz band ([9]; 3, 10, and 30 mg/kg orally 30 minutes prior to 5 mg/kg harmaline i.p.) | concentration at 90 min ([10]; CFB=CMB×BFF, read-out: Calculated Free Brain Concentration) | concentration at 90 min ([10]; brains harvested immediately following tremor recording, minimally efficacious dose, read-out: Measured Brain Concentration) | Effect on coefficient of variation of the interspike interval (ISI CV) [11]
1 | Cc1cc(NC2CCCCC2)nc(-n2nc(C)cc2C)n1 [Comparator A, reference compound] | 0.012 | 17 µg/mL (≈ 59.6 µM) | 1% | 1% | 2% | 1% | 6.10 | – | – | – | – | – | – | –
2 | Cc1ccn(-c2nc(NC3CCC(F)(F)CC3)cc(N3CCOCC3)n2)n1 [Compound 1, N-(4,4-difluorocyclohexyl)-2-(3-methyl-1H-pyrazol-1-yl)-6-morpholinopyrimidin-4-amine] | 0.061 | 74 µg/mL (≈ 196 µM) | 47% | 60% | 54% | 46% | < 5.00 | significant inhibition of tremors | 30 mg/kg | significantly reduced harmaline-induced tremor | significantly reduced tremor | 80 nM | 1300 nM | partially reversed the increase in ISI CV
